Experimental data published in patent publication US12655116B2, “Substituted isophthalic acid diamides” (Bayer Aktiengesellschaft, priority 2020, dated 2026).
Several values for one entry are separate records, joined by “and”; a condition that tells them apart may be missing. Equal entries are not always repeated.

What was measured:
ABUTH [1] = test: Pre-emergence herbicidal action against ABUTH; format: in vivo, Abutilon theophrasti
Procedure, shortened: (§1)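 Greenhouse pots of sandy loam held seeds covered with soil, onto which the compound was applied before emergence. An aqueous suspension or emulsion of WP or EC was used at 600 to 800 l/ha with 0.2% wetting agent. Percent damage was judged visually at 3 weeks.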

ALOMY [2] = test: Pre-emergence herbicidal action against ALOMY; format: in vivo, Alopecurus myosuroides; settings: 80 g/ha, pre-emergence, scored visually after 3 weeks vs untreated controls (100% = plants have died, 0% = like control plants)
Procedure, shortened: as §1

AMARE [3] = test: Pre-emergence herbicidal action against AMARE; format: in vivo, Amaranthus retroflexus
Procedure, shortened: as §1

AVEFA [4] = test: Pre-emergence herbicidal action against AVEFA; format: in vivo, Avena fatua; settings: pre-emergence
Procedure, shortened: as §1

ECHCG [5] = test: Pre-emergence herbicidal action against ECHCG; format: in vivo, Echinochloa crus-galli
Procedure, shortened: as §1

LOLRI = test: Pre-emergence herbicidal action against LOLRI; format: in vivo, Lolium rigidum; settings: 80 g/ha
Procedure, shortened: as §1

MATIN [6] = test: Pre-emergence herbicidal action against MATIN; format: in vivo, Matricaria inodora
Procedure, shortened: as §1

PHBPU [7] = test: Pre-emergence herbicidal action against PHBPU; format: in vivo, Pharbitis purpurea; settings: dosage 80 g/ha
Procedure, shortened: as §1

POLCO = test: Pre-emergence herbicidal action against POLCO; format: in vivo, Polygonum convolvulus; settings: dosage 80 g/ha
Procedure, shortened: as §1

SETVI [8] = test: Pre-emergence herbicidal action against SETVI; format: in vivo, Setaria viridis
Procedure, shortened: as §1

VERPE [9] = test: Pre-emergence herbicidal action against VERPE; format: in vivo, Veronica persica; settings: dosage 80 g/ha
Procedure, shortened: as §1

VIOTR [10] = test: Pre-emergence herbicidal action against VIOTR; format: in vivo, Viola tricolor
Procedure, shortened: as §1

DIGSA [11] = test: Pre-emergence herbicidal action against DIGSA; format: in vivo, Digitaria sanguinalis
Procedure, shortened: as §1

ABUTH [12] = test: Post-emergence herbicidal action against ABUTH; format: in vivo, Abutilon theophrasti; settings: visual assessment about 3 weeks after treatment vs untreated controls
Procedure, shortened: (§2)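 A WP or EC formulation diluted in water with 0.2% wetting agent was sprayed at 600 to 800 l/ha onto one-leaf-stage plants grown in sandy loam. About 3 weeks later, action was rated visually in percent, 100% being dead plants.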

ALOMY [13] = test: Post-emergence herbicidal action against ALOMY; format: in vivo, Alopecurus myosuroides; settings: visual assessment about 3 weeks after treatment vs untreated controls
Procedure, shortened: as §2

AMARE [14] = test: Post-emergence herbicidal action against AMARE; format: in vivo, Amaranthus retroflexus; settings: 20 g/ha, visual assessment about 3 weeks after treatment, 100% = plants have died, 0% = like control plants
Procedure, shortened: as §2

AVEFA [15] = test: Post-emergence herbicidal action against AVEFA; format: in vivo, Avena fatua; settings: 20 g/ha, visual assessment about 3 weeks after treatment, 100% = plants have died, 0% = like control plants
Procedure, shortened: as §2

ECHCG [16] = test: Post-emergence herbicidal action against ECHCG; format: in vivo, Echinochloa crus-galli
Procedure, shortened: as §2

PHBPU [17] = test: Post-emergence herbicidal action against PHBPU; format: in vivo, Pharbitis purpurea
Procedure, shortened: as §2

SETVI [18] = test: Post-emergence herbicidal action against SETVI; format: in vivo, Setaria viridis
Procedure, shortened: as §2

VERPE [19] = test: Post-emergence herbicidal action against VERPE; format: in vivo, Veronica persica; settings: 20 g/ha
Procedure, shortened: as §2

VIOTR [20] = test: Post-emergence herbicidal action against VIOTR; format: in vivo, Viola tricolor
Procedure, shortened: as §2

DIGSA [21] = test: Post-emergence herbicidal action against DIGSA; format: in vivo, Digitaria sanguinalis
Procedure, shortened: as §2

MATIN [22] = test: Post-emergence herbicidal action against MATIN; format: in vivo, Matricaria inodora; settings: dosage 20 g/ha
Procedure, shortened: as §2

[23] = Setaria viridis, 504 h, dosage 20 g/ha
[24] = 80 g/ha, scored visually after 3 weeks vs untreated controls (100% = plants have died, 0% = like control plants)

CNC(=O)c1c(C(F)F)ccc(C(=O)Nc2nnnn2C)c1Br [Example 1-225]
100%: pest or weed control at 80 g/ha (ALOMY [2]; Alopecurus myosuroides, 504 h) | pest or weed control at 20 g/ha (AMARE [3]; Amaranthus retroflexus, 504 h, 20 g/ha, scored visually after 3 weeks vs untreated controls, 100% = plants have died, 0% = like control plants) | pest or weed control at 80 g/ha (AMARE [3]; Amaranthus retroflexus, 504 h, 80 g/ha, scored visually after 3 weeks vs untreated controls, 100% = plants have died, 0% = like control plants) | pest or weed control at 80 g/ha (ECHCG [5]; Echinochloa crus-galli, 504 h, 80 g/ha) | pest or weed control at 80 g/ha (MATIN [6]; Tripleurospermum inodorum, 504 h, dosage 80 g/ha) | pest or weed control at 80 g/ha (PHBPU [7]; Ipomoea purpurea, 504 h) | pest or weed control at 80 g/ha (SETVI [8]; Setaria viridis, 504 h, dosage 80 g/ha) | pest or weed control at 80 g/ha (VIOTR [10]; Viola tricolor, 504 h, dosage 80 g/ha) | pest or weed control at 20 g/ha (AMARE [14]; Amaranthus retroflexus, 504 h) | pest or weed control at 20 g/ha (ECHCG [16]; Echinochloa crus-galli, 504 h, dosage 20 g/ha) | pest or weed control at 20 g/ha (SETVI [18]; [23])
80%: pest or weed control at 80 g/ha (ABUTH [1]; Abutilon theophrasti, 504 h, 80 g/ha, scored visually after 3 weeks vs untreated controls (100% = plants have died, 0% = like control plants)) | pest or weed control at 80 g/ha (AVEFA [4]; Avena fatua, 504 h, 80 g/ha) | pest or weed control at 20 g/ha (AVEFA [4]; Avena fatua, 504 h, 20 g/ha, scored visually after 3 weeks, 100% = plants have died, 0% = like control plants) | pest or weed control at 80 g/ha (LOLRI; Lolium rigidum, 504 h) | pest or weed control at 80 g/ha (VERPE [9]; Veronica persica, 504 h) | pest or weed control at 5 g/ha (ABUTH [12]; Abutilon theophrasti, 504 h, dosage 5 g/ha) | pest or weed control at 20 g/ha (ABUTH [12]; Abutilon theophrasti, 504 h, dosage 20 g/ha) | pest or weed control at 20 g/ha (AVEFA [15]; Avena fatua, 504 h) | pest or weed control at 20 g/ha (PHBPU [17]; Ipomoea purpurea, 504 h, dosage 20 g/ha) | pest or weed control at 20 g/ha (VIOTR [20]; Viola tricolor, 504 h, 20 g/ha)
90%: pest or weed control at 20 g/ha (ECHCG [5]; Echinochloa crus-galli, 504 h, 20 g/ha) | pest or weed control at 20 g/ha (MATIN [6]; Tripleurospermum inodorum, 504 h, dosage 20 g/ha) | pest or weed control at 80 g/ha (POLCO; Fallopia convolvulus, 504 h) | pest or weed control at 20 g/ha (SETVI [8]; [23]) | pest or weed control at 80 g/ha (DIGSA [11]; Digitaria sanguinalis, 504 h, dosage 80 g/ha) | pest or weed control at 20 g/ha (ALOMY [13]; Alopecurus myosuroides, 504 h, dosage 20 g/ha) | pest or weed control at 5 g/ha (ECHCG [16]; Echinochloa crus-galli, 504 h, dosage 5 g/ha) | pest or weed control at 5 g/ha (SETVI [18]; Setaria viridis, 504 h, dosage 5 g/ha) | pest or weed control at 20 g/ha (VERPE [19]; Veronica persica, 504 h) | pest or weed control at 5 g/ha (DIGSA [21]; Digitaria sanguinalis, 504 h, 5 g/ha) | pest or weed control at 20 g/ha (DIGSA [21]; Digitaria sanguinalis, 504 h, 20 g/ha)

CCn1nnnc1NC(=O)c1ccc(C(F)F)c(C(=O)NCC2CC2)c1C [Example 2-47]
90%: Pre-emergence action against PHBPU in % (PHBPU [7]) | Post-emergence action against ABUTH in % (ABUTH [12]; dosage 20 g/ha) | Post-emergence action against ALOMY in % (ALOMY [13]; dosage 20 g/ha) | Post-emergence action against PHBPU in % (PHBPU [17]; dosage 20 g/ha) | Post-emergence action against SETVI in % (SETVI [18]; dosage 20 g/ha) | Post-emergence action against DIGSA in % (DIGSA [21]; 5 g/ha) | Post-emergence action against DIGSA (DIGSA [21]; 20 g/ha)
80%: Pre-emergence action against AVEFA in % (AVEFA [4]; 80 g/ha) | Pre-emergence action against LOLRI in % (LOLRI) | Pre-emergence action against POLCO in % (POLCO) | Pre-emergence action against VIOTR in % (VIOTR [10]; dosage 20 g/ha) | Post-emergence action against ALOMY in % (ALOMY [13]; dosage 5 g/ha) | Post-emergence action at 20 g/ha against AVEFA in % (AVEFA [15]) | Post-emergence action against ECHCG in % (ECHCG [16]; dosage 5 g/ha) | Post-emergence action against MATIN in % (MATIN [22]) | Post-emergence action against PHBPU in % (PHBPU [17]; dosage 5 g/ha) | Post-emergence action against VERPE in % (VERPE [19]) | Post-emergence action against VIOTR in % (VIOTR [20]; 5 g/ha)
90% and 100%: Post-emergence action at 20 g/ha against AMARE in % (AMARE [14])
100%: Pre-emergence action against ABUTH (herbicidal activity) (ABUTH [1]; [24]) | Pre-emergence action against ABUTH (herbicidal activity in percent) (ABUTH [1]; dosage 20 g/ha, scored visually after 3 weeks vs untreated controls, 100% = plants have died, 0% = like control plants) | Pre-emergence action against ALOMY (herbicidal activity) (ALOMY [2]) | Pre-emergence action against AMARE in % (AMARE [3]; 20 g/ha, scored visually after 3 weeks vs untreated controls, 100% = plants have died, 0% = like control plants) | Pre-emergence action against AMARE in % (AMARE [3]; [24]) | Pre-emergence action against ECHCG in % (ECHCG [5]; 80 g/ha) | Pre-emergence action against MATIN in % (MATIN [6]; dosage 20 g/ha) | Pre-emergence action against MATIN in % (MATIN [6]; dosage 80 g/ha) | Pre-emergence action against SETVI in % (SETVI [8]; dosage 80 g/ha) | Pre-emergence action against VERPE in % (VERPE [9]) | Pre-emergence action against VIOTR in % (VIOTR [10]; dosage 80 g/ha) | Pre-emergence action against DIGSA in % (DIGSA [11]; dosage 20 g/ha) | Pre-emergence action against DIGSA in % (DIGSA [11]; dosage 80 g/ha)
90% and 80%: Post-emergence action against ABUTH in % (ABUTH [12]; dosage 5 g/ha) | Post-emergence action against ECHCG in % (ECHCG [16]; dosage 20 g/ha) | Post-emergence action against VIOTR in % (VIOTR [20]; 20 g/ha)
